Measured values reported in patent US9409952B2, “Peptide-compound cyclization method” (Chugai Seiyaku Kabushiki Kaisha, priority 2011, dated 2016).
Where two headings read alike, the source gives them in different places. Starred links: 1 amine or outer side, 2 acyl side, 3 side chain; linkers in the order of their positions; H or OH if unused. Positions of bridges follow the written chain, without caps; N, C: chain ends. Non-standard residues stand in square brackets, D forms with d. Residues, ends and D or L forms follow the SMILES beside them. ξ: configuration not given here. *: point of attachment. Phe(4-(CH2)5CO) = O=C([C@H](Cc1ccc(CCCCCC(=O)[*:3])cc1)N[*:1])[*:2]; Phe(3-(CH2)4CO) = O=C([C@H](Cc1cccc(CCCCC(=O)[*:3])c1)N[*:1])[*:2]; Phe(4-CF3) = N[C@@H](Cc1ccc(C(F)(F)F)cc1)C(=O)O; NMeF = CN[C@@H](Cc1ccccc1)C(=O)O; NMeGABA = CN(CCCC(=O)[*:2])[*:1]; NMeI = CC[C@H](C)[C@H](NC)C(=O)O; NMeβAla = CN(CCC(=O)[*:2])[*:1]; NMeL = CN[C@@H](CC(C)C)C(=O)O; NMeV = CN[C@H](C(=O)O)C(C)C; NMeS = CN[C@@H](CO)C(=O)O; NMeA = CN[C@@H](C)C(=O)O; Piperidide = C1CCN(*)CC1; β3hA = C[C@H](N)CC(=O)O; ξL = CC(C)CC(N)C(=O)O; Sar = CNCC(=O)O; tBu = CC(C)(C)*

Experiments:
[1] = PAMPA (parallel artificial membrane permeability assay); type: in vitro ADME; conditions: PAMPA
Method in brief: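 Artificial membrane was 10% (w/v) egg lecithin plus 0.5% (w/v) cholesterol in dodecane on a PVDF filter. A 10 mM DMSO stock was added at 0.5% (v/v) to donor buffer (50 mM MOPSO, pH 6.5, 5.0% glycocholic acid). After 18 h at 37 °C, LC/MS or LC/UV gave donor and acceptor levels for Pe.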

[2] = Metabolic stability in human hepatic microsome; type: in vitro ADME; conditions: microsomes
[3] = membrane permeation rate (Pe), 50 mM MOPSO buffer pH 6.5 with 5.0% glycocholic acid, 37° C., 18 hours, read-out: iPAMPA Pe
[4] = pH 7.4, human hepatic microsome, NADPH(+), read-out: CL NADPH(+)

Row | Compound | Papp at 18 hours, 50 µM [1, 3] [×10⁻⁶ cm/s] | microsomal CLint at 1 uM [2, 4] [µL/min/mg] | Papp at 18 hours, 50 µM ([1]; pH 6.5) [×10⁻⁶ cm/s] | microsomal CLint at 1 uM ([2]; human, pH 7.4, CL NADPH(+)) [µL/min/mg]
1 | CC[C@H](C)[C@@H]1NC(=O)[C@H](C)N(C)C(=O)CCCN(C)C(=O)C[C@@H](C(=O)N2CCCCC2)NC(=O)[C@H](CC(C)C)N(C)C(=O)[C@H](C)N(C)C(=O)[C@H]([C@@H](C)O)NC(=O)[C@H](Cc2ccccc2)N(C)C(=O)[C@H](Cc2ccccc2)N(C)C(=O)[C@H](CC(C)C)N(C)C1=O [DP-261] ([NMeGABA][NMeA]I[NMeL][NMeF][NMeF]T[NMeA][NMeL]D-Piperidide; lactam N-10) | 27 | 84 |  | 
2 | CC[C@H](C)[C@@H]1NC(=O)[C@H](C)NC(=O)C[C@H](C)NC(=O)[C@H](CC(C)C)NC(=O)[C@H](CC(C)C)NC(=O)[C@H](C(C)C)NC(=O)[C@H](C)N(C)C(=O)[C@H](Cc2ccc(C(F)(F)F)cc2)NC(=O)CNC(=O)[C@H]([C@@H](C)O)NC(=O)[C@H](CC(C)C)N(C)C(=O)[C@@H]2CCCN2C1=O [DP-807] (cyclo(AIP[NMeL]TG[Phe(4-CF3)][NMeA]VLL[β3hA])) |  |  | 15 | 81
3 | CC[C@H](C)[C@H](NC(=O)[C@H](CC(C)C)NC(=O)[C@H](CC(C)C)N(C)C(=O)CN(C)C(=O)[C@@H]1CC(=O)N[C@H](C)C(=O)N[C@@H]([C@@H](C)O)C(=O)N(C)[C@@H](CC(C)C)C(=O)N[C@@H]([C@@H](C)CC)C(=O)N(C)[C@@H](CC(C)C)C(=O)N[C@@H](CC(C)C)C(=O)N1)C(=O)N1CCCCC1 [DP-919] ([dA]T[NMeL]I[NMeL]LD[Sar][NMeL]LI-Piperidide; lactam N-7) | 27 | 128 |  | 
4 | CC[C@H](C)[C@H]1C(=O)N(C)[C@@H](C)C(=O)N[C@H](C(=O)N2CCCCC2)Cc2ccc(cc2)CCCCCC(=O)N[C@@H]([C@@H](C)O)C(=O)N(C)[C@@H](Cc2ccccc2)C(=O)N(C)[C@@H](CC(C)C)C(=O)N[C@@H](C(C)C)C(=O)N2CCC[C@H]2C(=O)N(C)[C@@H](Cc2ccccc2)C(=O)N[C@@H](CC(C)C)C(=O)N(C)CC(=O)N1C [DP-883] (T[NMeF][NMeL]VP[NMeF]L[Sar][NMeI][NMeA][Phe(4-(CH2)5CO)]-Piperidide; lactam N-11) | 14 | 294 |  | 
5 | CC(C)C[C@H]1C(=O)N(C)[C@@H](CC(C)C)C(=O)N[C@H](C(=O)N2CCCCC2)CC(=O)N(C)CCCC(=O)N(C)[C@@H](Cc2ccccc2)C(=O)N[C@@H]([C@@H](C)O)C(=O)N(C)CC(=O)N[C@@H](COC(C)(C)C)C(=O)N1C [DP-525] ([NMeGABA][NMeF]T[Sar]S(tBu)[NMeL][NMeL]D-Piperidide; lactam N-8) | 22 | 86 |  | 
6 | CC[C@H](C)[C@H]1C(=O)N(C)[C@@H](Cc2ccccc2)C(=O)N[C@H](C(=O)N2CCCCC2)CC(=O)N(C)CCC(=O)NC(CC(C)C)C(=O)N(C)[C@@H](Cc2ccccc2)C(=O)N(C)[C@@H](CC(C)C)C(=O)N(C)[C@@H](C(C)C)C(=O)N[C@@H](C)C(=O)N(C)[C@@H](C)C(=O)N[C@@H]([C@@H](C)O)C(=O)N(C)CC(=O)N1C (stereo partly drawn) [DP-61] ([NMeβAla][ξL][NMeF][NMeL][NMeV]A[NMeA]T[Sar][NMeI][NMeF]D-Piperidide; lactam N-12) |  |  | 19 | 47
7 | CC[C@H](C)[C@@H]1NC(=O)[C@H](CC(C)C)N(C)C(=O)CN(C)C(=O)[C@H]([C@@H](C)O)NC(=O)[C@H](Cc2ccccc2)N(C)C(=O)[C@H](CC(C)C)N(C)C(=O)[C@H](C)N(C)C(=O)C[C@@H](C(=O)N2CCCCC2)NC(=O)[C@H](CC(C)C)N(C)C1=O [DP-342] ([NMeA][NMeL][NMeF]T[Sar][NMeL]I[NMeL]D-Piperidide; lactam N-9) | 33 | 121 |  | 
8 | CC(C)C[C@@H]1NC(=O)[C@H](CC(C)C)N(C)C(=O)[C@H](C(C)C)NC(=O)[C@H](CC(C)C)N(C)C(=O)CN(C)C(=O)[C@H](C(C)C)NC(=O)[C@H](CO)N(C)C(=O)[C@H](CC(C)C)N(C)C(=O)C[C@H](C)NC(=O)[C@H](CC(C)C)N(C)C(=O)[C@@H](C)NC1=O [DP-653] (cyclo(L[dA][NMeL][β3hA][NMeL][NMeS]V[Sar][NMeL]V[NMeL])) | 33 | 235 |  | 
9 | CC(C)C[C@H]1C(=O)N(C)[C@@H](Cc2ccccc2)C(=O)N[C@@H]([C@@H](C)O)C(=O)N(C)[C@@H](C)C(=O)N[C@@H](C(C)C)C(=O)N(C)[C@@H](CC(C)C)C(=O)N(C)[C@@H](CC(C)C)C(=O)N[C@H](C(=O)N(C)[C@@H](Cc2ccccc2)C(=O)N[C@@H](C)C(=O)N2CCCCC2)CC(=O)N(C)CCC(=O)N1C [DP-201] ([NMeβAla][NMeL][NMeF]T[NMeA]V[NMeL][NMeL]D[NMeF]A-Piperidide; lactam N-9) | 27 | 209 |  | 
10 | CC[C@H](C)[C@H]1C(=O)N[C@H](C(=O)N2CCCCC2)CC(=O)N(C)CCCC(=O)N(C)[C@@H](CC(C)C)C(=O)N[C@@H](C)C(=O)N(C)[C@@H](CC(C)C)C(=O)N(C)[C@@H](Cc2ccccc2)C(=O)N(C)[C@@H](CC(C)C)C(=O)N[C@@H]([C@@H](C)O)C(=O)N(C)[C@@H](C)C(=O)N(C)[C@@H](Cc2ccccc2)C(=O)N1C [DP-251] ([NMeGABA][NMeL]A[NMeL][NMeF][NMeL]T[NMeA][NMeF][NMeI]D-Piperidide; lactam N-11) | 24 | 45 |  | 
11 | CC[C@H](C)[C@H](NC(=O)[C@H](C)N(C)C(=O)[C@H](Cc1ccccc1)N(C)C(=O)[C@H](CC(C)C)N(C)C(=O)[C@@H]1CC(=O)N[C@@H](C)C(=O)N(C)[C@@H](Cc2ccccc2)C(=O)N(C)[C@@H](CC(C)C)C(=O)N[C@@H]([C@@H](C)O)C(=O)N(C)CC(=O)N(C)[C@@H](Cc2ccccc2)C(=O)N1)C(=O)N1CCCCC1 [DP-918] (A[NMeF][NMeL]T[Sar][NMeF]D[NMeL][NMeF][NMeA]I-Piperidide; lactam N-7) | 5.3 | 55 |  | 
12 | CC(C)C[C@H]1C(=O)N(C)[C@@H](C(C)C)C(=O)N[C@@H](Cc2ccccc2)C(=O)N[C@H](C(=O)N2CCCCC2)CC(=O)N(C)CCCC(=O)N[C@@H](COC(C)(C)C)C(=O)N(C)[C@@H](CC(C)C)C(=O)N(C)[C@@H](Cc2ccccc2)C(=O)N[C@@H]([C@@H](C)O)C(=O)NCC(=O)N1C [DP-277] ([NMeGABA]S(tBu)[NMeL][NMeF]TG[NMeL][NMeV]FD-Piperidide; lactam N-10) | 38 | 389 |  | 
13 | CC[C@H](C)[C@@H]1NC(=O)[C@H](Cc2ccccc2)NC(=O)[C@@H]2CCCN2C(=O)[C@H](CC(C)C)N(C)C(=O)[C@H](Cc2ccccc2)NC(=O)[C@H](CC(C)C)NC(=O)[C@H]([C@@H](C)O)NC(=O)CCCCc2cccc(c2)C[C@@H](C(=O)N2CCCCC2)NC(=O)[C@H](CC(C)C)NC(=O)CN(C)C1=O [DP-901] (TLF[NMeL]PFI[Sar]L[Phe(3-(CH2)4CO)]-Piperidide; lactam N-10) | 23 | 131 |  | 
14 | CC[C@H](C)[C@H](NC(=O)[C@@H](NC(=O)[C@H](CC(C)C)N(C)C(=O)[C@@H](NC(=O)[C@@H]1CC(=O)N(C)[C@@H](C)C(=O)N[C@@H](CC(C)C)C(=O)N(C)[C@@H](Cc2ccccc2)C(=O)N[C@@H](CC(C)C)C(=O)N(C)CC(=O)N(C)[C@@H](CC(C)C)C(=O)N[C@@H]([C@@H](C)CC)C(=O)N(C)[C@@H](CC(C)C)C(=O)N1)[C@@H](C)O)C(C)C)C(=O)N1CCCCC1 [DP-940] ([NMeA]L[NMeF]L[Sar][NMeL]I[NMeL]DT[NMeL]VI-Piperidide; lactam N-9) | 0.14 | 37 |  | 
15 | CC(C)C[C@@H]1NC(=O)[C@@H](C(C)C)NC(=O)C[C@H](C)NC(=O)[C@H](CC(C)C)N(C)C(=O)[C@H](CC(C)C)N(C)C(=O)[C@H](Cc2ccc(C(F)(F)F)cc2)NC(=O)[C@H](C)N(C)C(=O)[C@H]([C@@H](C)O)NC1=O [DP-825] (cyclo(LT[NMeA][Phe(4-CF3)][NMeL][NMeL][β3hA][dV])) | 39 | 168 |  | 
16 | CC(C)C[C@H]1C(=O)N(C)[C@@H](C(C)C)C(=O)N(C)[C@@H](C)C(=O)N[C@H](C(=O)N(C)[C@@H](Cc2ccccc2)C(=O)N(C)[C@@H](Cc2ccccc2)C(=O)N[C@@H](C)C(=O)N2CCCCC2)CC(=O)N(C)CCC(=O)N(C)CC(=O)N[C@@H]([C@@H](C)O)C(=O)N[C@@H](Cc2ccccc2)C(=O)N(C)[C@@H](C(C)C)C(=O)N[C@@H](C)C(=O)N1C [DP-497] ([NMeβAla][Sar]TF[NMeV]A[NMeL][NMeV][NMeA]D[NMeF][NMeF]A-Piperidide; lactam N-10) | 9.3 | 58 |  | 
17 | CC(C)C[C@H]1C(=O)N[C@@H]([C@@H](C)O)C(=O)N(C)CC(=O)N(C)[C@@H](Cc2ccccc2)C(=O)N(C)[C@@H](CC(C)C)C(=O)N(C)[C@@H](Cc2ccccc2)C(=O)N(C)[C@@H](CC(C)C)C(=O)N[C@@H](C)C(=O)N[C@H](C(=O)N2CCCCC2)CC(=O)N(C)CCC(=O)N(C)[C@@H](C)C(=O)N1C [DP-471] ([NMeβAla][NMeA][NMeL]T[Sar][NMeF][NMeL][NMeF][NMeL]AD-Piperidide; lactam N-11) | 21 | 30 |  | 
18 | CC[C@H](C)[C@@H]1NC(=O)[C@H](C)N(C)C(=O)C[C@@H](C(=O)N2CCCCC2)NC(=O)[C@H](Cc2ccccc2)NC(=O)[C@H](CC(C)C)N(C)C(=O)[C@H](C(C)C)N(C)C(=O)[C@H](C)N(C)C(=O)[C@H]([C@@H](C)O)NC(=O)[C@H](Cc2ccccc2)N(C)C(=O)[C@H](C)N(C)C(=O)[C@H](CC(C)C)N(C)C1=O [DP-481] ([NMeA]I[NMeL][NMeA][NMeF]T[NMeA][NMeV][NMeL]FD-Piperidide; lactam N-11) | 31 | 82 |  | 
